Converted amounts (≈) assume the structure as drawn.
Test: Toxicity in brine shrimp after 24 hrs
Format: organism-based
Conditions: artemia, in vivo; read-out: LD50

**Q.** Which LC50 at 24 h does the source give for `COc1cc([C@@H]2c3cc4c(cc3[C@H](O)[C@H]3COC(=O)[C@H]23)OCO4)cc(OC)c1OC` [PODOFILOX] here?
**A.** 2 µg/mL (≈ 4.83 µM)

From ChEMBL document CHEMBL1158030, “Endophyte fungal isolates from Podophyllum peltatum produce podophyllotoxin” (J Nat Prod, 2006)
